Data reported in PubChem BioAssay (NCI).
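Interpolation was linear, between the two tested concentrations surrounding the appropriate level; five concentrations were tested over 48 hours in 96-well plates. At the GI50, growth is halved. TGI: concentration producing complete growth inhibition.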

Columns and labels:
Assay in all cases: NCI tumour cell line growth inhibition, 48 h
OVCAR-8 ovarian = tested on: OVCAR-8 ovarian
MDA-MB-231 breast = tested on: MDA-MB-231 breast
A498 renal = tested on: A498 renal
SK-MEL-2 melanoma = tested on: SK-MEL-2 melanoma
SF-295 CNS = tested on: SF-295 CNS
HT29 colon = tested on: HT29 colon
SK-MEL-5 melanoma = tested on: SK-MEL-5 melanoma
EKVX NSCLC = tested on: EKVX NSCLC
RPMI-8226 leukemia = tested on: RPMI-8226 leukemia
MALME-3M melanoma = tested on: MALME-3M melanoma
SNB-19 CNS = tested on: SNB-19 CNS
NCI-H23 lung = tested on: NCI-H23 lung
PC-3 prostate = tested on: PC-3 prostate
A549 NSCLC = tested on: A549 NSCLC
OVCAR-4 ovarian = tested on: OVCAR-4 ovarian
MDA-MB-435 = tested on: MDA-MB-435
LOX IMVI melanoma = tested on: LOX IMVI melanoma
HCT-116 colon = tested on: HCT-116 colon
IGROV1 ovarian = tested on: IGROV1 ovarian
TK-10 renal = tested on: TK-10 renal
NCI-H226 lung = tested on: NCI-H226 lung
SK-MEL-28 melanoma = tested on: SK-MEL-28 melanoma
ACHN renal = tested on: ACHN renal
HL-60(TB) leukemia = tested on: HL-60(TB) leukemia
UACC-62 melanoma = tested on: UACC-62 melanoma
M14 melanoma = tested on: M14 melanoma
SF-539 CNS = tested on: SF-539 CNS
COLO 205 colon = tested on: COLO 205 colon
MOLT-4 leukemia = tested on: MOLT-4 leukemia
OVCAR-3 ovarian = tested on: OVCAR-3 ovarian
NCI-H460 lung = tested on: NCI-H460 lung
HOP-62 NSCLC = tested on: HOP-62 NSCLC
HOP-92 NSCLC = tested on: HOP-92 NSCLC
OVCAR-5 ovarian = tested on: OVCAR-5 ovarian
SN12C renal = tested on: SN12C renal
UO-31 renal = tested on: UO-31 renal
HCT-15 colon = tested on: HCT-15 colon
HCC-2998 colon = tested on: HCC-2998 colon
SK-OV-3 ovarian = tested on: SK-OV-3 ovarian
786-0 renal = tested on: 786-0 renal
CCRF-CEM leukemia = tested on: CCRF-CEM leukemia
NCI-H522 lung = tested on: NCI-H522 lung
BT-549 breast = tested on: BT-549 breast
KM12 colon = tested on: KM12 colon
SW-620 colon = tested on: SW-620 colon
HS 578T breast = tested on: HS 578T breast
SNB-75 CNS = tested on: SNB-75 CNS
NCI/ADR-RES ovarian = tested on: NCI/ADR-RES ovarian
RXF 393 renal = tested on: RXF 393 renal
DU-145 prostate = tested on: DU-145 prostate
K-562 leukemia = tested on: K-562 leukemia
UACC-257 melanoma = tested on: UACC-257 melanoma
SR leukemia = tested on: SR leukemia
SF-268 CNS = tested on: SF-268 CNS
MCF7 breast = tested on: MCF7 breast
U251 CNS = tested on: U251 CNS

**Q.** Which results are given for `COc1ccc([As]=[As]c2ccc(OC)c(NCS(=O)(=O)O)c2)cc1NCS(=O)(=O)O` (configuration not stated)?
**A.** GI50 (OVCAR-8 ovarian): 2.48 µM; TGI (OVCAR-8 ovarian): 6.84 µM; GI50 (MDA-MB-231 breast): 1.56 µM; TGI (MDA-MB-231 breast): 3.4 µM; GI50 (A498 renal): 1.65 µM; TGI (A498 renal): 3.26 µM; GI50 (SK-MEL-2 melanoma): 1.91 µM; TGI (SK-MEL-2 melanoma): 4.54 µM; GI50 (SF-295 CNS): 3.01 µM; TGI (SF-295 CNS): 9.48 µM; GI50 (HT29 colon): 2.25 µM; TGI (HT29 colon): 5.37 µM; GI50 (SK-MEL-5 melanoma): 1.86 µM; TGI (SK-MEL-5 melanoma): 4.27 µM; GI50 (EKVX NSCLC): 1.36 µM; TGI (EKVX NSCLC): 7.26 µM; GI50 (RPMI-8226 leukemia): 0.926 µM; TGI (RPMI-8226 leukemia): 5.93 µM; GI50 (MALME-3M melanoma): 1.41 µM; TGI (MALME-3M melanoma): 3.34 µM; GI50 (SNB-19 CNS): 1.82 µM; TGI (SNB-19 CNS): 3.68 µM; GI50 (NCI-H23 lung): 2.57 µM; TGI (NCI-H23 lung): 8.62 µM; GI50 (PC-3 prostate): 3.14 µM; TGI (PC-3 prostate): 11.7 µM; GI50 (A549 NSCLC): 3.04 µM; TGI (A549 NSCLC): 9.96 µM; GI50 (OVCAR-4 ovarian): 1.27 µM; TGI (OVCAR-4 ovarian): 2.6 µM; GI50 (MDA-MB-435): 2.03 µM; TGI (MDA-MB-435): 5.26 µM; GI50 (LOX IMVI melanoma): 1.34 µM; TGI (LOX IMVI melanoma): 4.49 µM; GI50 (HCT-116 colon): 1.7 µM; TGI (HCT-116 colon): 3.2 µM; GI50 (IGROV1 ovarian): 1.19 µM; TGI (IGROV1 ovarian): 3.4 µM; GI50 (TK-10 renal): 1.86 µM; TGI (TK-10 renal): 3.55 µM; GI50 (NCI-H226 lung): 4.07 µM; TGI (NCI-H226 lung): 17.3 µM; GI50 (SK-MEL-28 melanoma): 1.45 µM; TGI (SK-MEL-28 melanoma): 3 µM; GI50 (ACHN renal): 1.62 µM; TGI (ACHN renal): 3 µM; GI50 (HL-60(TB) leukemia): 1.51 µM; TGI (HL-60(TB) leukemia): 11.7 µM; GI50 (UACC-62 melanoma): 1.86 µM; TGI (UACC-62 melanoma): 4.6 µM; GI50 (M14 melanoma): 2.15 µM; TGI (M14 melanoma): 5.69 µM; GI50 (SF-539 CNS): 1.39 µM; TGI (SF-539 CNS): 3.43 µM; GI50 (COLO 205 colon): 1.52 µM; TGI (COLO 205 colon): 3.46 µM; GI50 (MOLT-4 leukemia): 1.33 µM; TGI (MOLT-4 leukemia): 6.18 µM; GI50 (OVCAR-3 ovarian): 1.57 µM; TGI (OVCAR-3 ovarian): 3.06 µM; GI50 (NCI-H460 lung): 3.49 µM; TGI (NCI-H460 lung): 12.2 µM; GI50 (HOP-62 NSCLC): 2.4 µM; TGI (HOP-62 NSCLC): 5.9 µM; GI50 (HOP-92 NSCLC): 1.45 µM; TGI (HOP-92 NSCLC): 3.24 µM; GI50 (OVCAR-5 ovarian): 2.02 µM; TGI (OVCAR-5 ovarian): 4.22 µM; GI50 (SN12C renal): 1.54 µM; TGI (SN12C renal): 3.34 µM; GI50 (UO-31 renal): 1.46 µM; TGI (UO-31 renal): 3.16 µM; GI50 (HCT-15 colon): 1.47 µM; TGI (HCT-15 colon): 3.31 µM; GI50 (HCC-2998 colon): 2.67 µM; TGI (HCC-2998 colon): 8.8 µM; GI50 (SK-OV-3 ovarian): 10 µM; TGI (SK-OV-3 ovarian): 21.8 µM; GI50 (786-0 renal): 1.63 µM; TGI (786-0 renal): 3.51 µM; GI50 (CCRF-CEM leukemia): 0.415 µM; TGI (CCRF-CEM leukemia): 3.14 µM; GI50 (NCI-H522 lung): 0.324 µM; TGI (NCI-H522 lung): 1.53 µM; GI50 (BT-549 breast): 1.11 µM; TGI (BT-549 breast): 2.45 µM; GI50 (KM12 colon): 2.98 µM; TGI (KM12 colon): 10.5 µM; GI50 (SW-620 colon): 1.17 µM; TGI (SW-620 colon): 3.04 µM; GI50 (HS 578T breast): 3.21 µM; TGI (HS 578T breast): > 100 µM; GI50 (SNB-75 CNS): 1.27 µM; TGI (SNB-75 CNS): 2.8 µM; GI50 (NCI/ADR-RES ovarian): 3.49 µM; TGI (NCI/ADR-RES ovarian): 27.1 µM; GI50 (RXF 393 renal): 1.41 µM; TGI (RXF 393 renal): 3.09 µM; GI50 (DU-145 prostate): 3.56 µM; TGI (DU-145 prostate): 13.8 µM; GI50 (K-562 leukemia): 0.615 µM; TGI (K-562 leukemia): 11.1 µM; GI50 (UACC-257 melanoma): 1.62 µM; TGI (UACC-257 melanoma): 3.37 µM; GI50 (SR leukemia): 0.691 µM; TGI (SR leukemia): 4.88 µM; GI50 (SF-268 CNS): 1.62 µM; TGI (SF-268 CNS): 4.12 µM; GI50 (MCF7 breast): 1.09 µM; TGI (MCF7 breast): 3.44 µM; GI50 (U251 CNS): 0.768 µM; TGI (U251 CNS): 2.25 µM
